The values that follow come from ChEMBL document CHEMBL1126435, “DuP 747: a new, potent, kappa opioid analgesic. Synthesis and pharmacology1” (Bioorg Med Chem Lett, 1992).

Assay [1] deals with Sigma non-opioid intracellular receptor 1 (Homo sapiens, UniProt Q99720).
Description: Compound was evaluated for the binding affinity to sigma opioid receptor
Assay [2] deals with Rattus norvegicus. The experiment in a line: Compound was evaluated for analgesic activity by rat tail-flick assay following peroral administration. The settings on record: po. On the technique in general: Thermal pain tests record how soon the animal reacts.
Assay [3] deals with Rattus norvegicus. The experiment in a line: Compound was evaluated for analgesic activity by rat tail-flick assay following subcutaneous administration. The settings on record: sc.

Sigma non-opioid intracellular receptor 1, sequence (Q99720 whole entry): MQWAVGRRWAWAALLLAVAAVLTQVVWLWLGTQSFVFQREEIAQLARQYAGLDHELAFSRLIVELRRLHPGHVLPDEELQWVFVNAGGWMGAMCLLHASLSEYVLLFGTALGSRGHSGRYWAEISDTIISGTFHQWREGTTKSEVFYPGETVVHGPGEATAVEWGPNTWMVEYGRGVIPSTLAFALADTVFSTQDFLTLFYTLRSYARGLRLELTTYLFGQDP

Take `COc1cccc2c1CC[C@H](N1CCCC1)[C@H]2N(C)C(=O)Cc1ccc(Cl)c(Cl)c1`: the Ki (usually the equilibrium dissociation constant of an inhibitor or competing ligand from its target) in assay [1] is 5.16 µM. For the molecule `CN1CC[C@]23c4c5ccc(O)c4O[C@H]2[C@@H](O)C=C[C@H]3[C@H]1C5` [MORPHINE], the ED50 (in general, the dose at which the effect has come halfway, by size or by number of responders) turned out to be 54 mg/kg in the assay with Rattus norvegicus [2] and 4.9 mg/kg in the assay on Rattus norvegicus [3].
